Broadly, the IC50 is the midpoint of a concentration-inhibition curve.

Molecules are shown by their SMILES.

In this test the target is T1, hROMK (hKir1.1) (Homo sapiens, UniProt P48048).
T1 construct: expressed in transfected cells
T1 sequence (P48048 1-391): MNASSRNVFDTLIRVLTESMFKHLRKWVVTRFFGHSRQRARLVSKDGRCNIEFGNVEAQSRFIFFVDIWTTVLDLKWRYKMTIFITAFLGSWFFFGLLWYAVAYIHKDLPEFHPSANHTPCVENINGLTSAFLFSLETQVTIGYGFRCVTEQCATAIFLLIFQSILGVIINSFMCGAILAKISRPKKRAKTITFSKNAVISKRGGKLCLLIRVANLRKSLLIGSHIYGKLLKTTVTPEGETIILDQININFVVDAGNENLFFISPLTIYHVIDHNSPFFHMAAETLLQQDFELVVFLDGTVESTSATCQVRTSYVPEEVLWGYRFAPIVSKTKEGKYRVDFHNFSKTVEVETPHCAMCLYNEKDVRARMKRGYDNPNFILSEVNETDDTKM
In words: Thallium Flux Assay (ROMK channel functional thallium flux, FLIPR-Tetra). Format: cell-based. Particulars: HEK293 cells stably expressing hROMK (hKir1.1); 30 min incubation with compound; HCl salt run where final product was an HCl salt. How it is done: The following Thallium Flux Assay was performed on each of the final product compounds in the Examples. When the final product of an Example was an HCl salt, the salt was run in the Assay.
Cell Culture Conditions—HEK293 cells stably expressing hROMK (hKir1.1) were grown at 37° C. in a 10% CO2 humidified incubator in complete growth media: Dulbecco's Modified Eagle Medium supplemented with non-essential amino acids, Penicillin/Streptomycin/Glutamine, G418 and FBS. At >80% confluency, aspirate the media from the flask and rinse with 10 mL Calcium/Magnesium-free PBS. Add 5 mL of 1× trypsin (prepared in Ca/Mg Free PBS) to T-225 flask and return flask to 37° C./CO2 incubator for 2-3 minutes. To dislodge the cell, gently bang the side of the flask with your hand. Triturate the cells completely and then transfer the cells to 25 mL complete media. Centrifuge at 1,500 rpm for 6 min followed by resuspension in complete growth media and determine cell concentration. For typical re-seeding, 4E6 cells/T-225 flask will attain >80% confluency in 4 days. Under ideal growth conditions and appropriate tissue culture practices, this cell line is stable for 40-45 passages.
FluxOR Kit Components (Invitrogen F10017)
• FluxOR™ Reagent (Component A) • FluxOR™ Assay Buffer (Component B)—10× Concentrate • PowerLoad™ Concentrate (Component C)—100× Concentrate • Probenecid (Component D)—Lyophilized sample is kept at −20° C. Water soluble, 100× after solubilization in 1 mL water. Store at 4° C. • FluxOR™ Chloride-free Buffer (Component E)—5× Concentrate • Potassium sulfate (K2SO4) Concentrate (Component F)—125 mM in water. Store at 4° C. • Thallium sulfate (T12SO4) Concentrate (Component G)—50 mM in water. Store at 4° C. • DMSO (dimethyl sulfoxide, Component H)—1 mL (100%) Reagent Preparation: FluxOR Working Solutions • 1000× FluxOR™ Reagent: Reconstitute a vial of component A in 100 μl DMSO; Mix well; Store 10 μl aliquots at −20° C. • 1× FluxOR™ Assay Buffer: Dilute Component B 10-fold with water; Adjust pH to 7.4 with Hepes/NaOH; Filter and store at 4° C. • Probenecid/Assay Buffer: 100 mL of 1× FluxOR™ Assay Buffer; 1 mL of reconstituted component D; Store at 4° C. • Loading Buffer (per microplate): 10 μl 1000× FluxOR™ Reagent; 100 μl component C; 10 mL Probenecid/Assay Buffer • Compound Buffer (per microplate): 20 mL Probenecid/Assay Buffer; 0.3 mM ouabain (10 mM ouabain in water can be stored in amber bottle/aluminum foil at room temperature); Test compound • 1× FluxOR™ Chloride-Free Buffer: Prepare 1× working solution in water. Can be stored at room temperature • Stimulant Buffer (prepared at 5× final concentration in 1× FluxOR™ Chloride-Free Buffer): 7.5 mM Thallium sulfate and 0.75 mM Potassium sulfate (to give a final assay concentration of 3 mM Thallium/0.3 mM Potassium). Store at 4° C. when not in use.
Assay protocol—The ROMK channel functional thallium flux assay is performed in 384 wells, using the FLIPR-Tetra instrument. HEK-hKir1.1 cells are seeded in Poly-D-Lysine microplates and kept in a 37° C.-10% CO2 incubator overnight. On the day of the experiment, the growth media is replaced with the FluxOR™ reagent loading buffer and incubated, protected from light, at ambient temperature (23-25° C.) for 90 min. The loading buffer is replaced with assay buffer±test compound followed by 30 min incubation at ambient temperature, where the Thallium/Potassium stimulant is added to the microplate.
• 1. Seed HEK-hKir1.1 cells (50 μl at 20,000 cells/well) in 384-well PDL coated Microplates • 2. Allow cells to adhere overnight in humidified 37° C./10% CO2 incubator • 3. Completely remove cell growth media from microplate and replace with 25 μl loading buffer • 4. Incubate Microplate at room temperature, protected from light, for 90 min • 5. Remove loading buffer and replace with 25 μl 1× Assay Buffer±test compound. • 6. Incubate microplate at room temperature, protected from light, for 30 min • 7. […]
Consider `N#Cc1cc(NC(=O)C2CCN(CCc3ccc4c(c3)COC4=O)CC2)ccc1F` [Example 17, N-(3-cyano-4-fluorophenyl)-1-(2-(1-oxo-1,3-dihydroisobenzofuran-5-yl)ethyl)piperidine-4-carboxamide], for which the IC50 came out at 410 nM.

Consider `Cc1c([C@@H](O)CN2CCC(C(=O)Nc3ccns3)CC2)ccc2c1COC2=O` [Example 22, 1-[(2R)-2-hydroxy-2-(4-methyl-1-oxo-1,3-dihydro-2-benzofuran-5-yl)ethyl]-N-(isothiazol-5-yl)piperidine-4-carboxamide], for which the IC50 was 40 nM.

As for `Cc1c([C@@H](O)CN2CCC(O)(C(=O)Nc3ccns3)CC2)ccc2c1COC2=O` [Example 38, (R)-4-hydroxy-1-(2-hydroxy-2-(4-methyl-1-oxo-1,3-dihydroisobenzofuran-5-yl)ethyl)-N-(isothiazol-5-yl)piperidine-4-carboxamide], the IC50 turned out to be 110 nM.

Take `COc1nsc(NC(=O)C2C3CN(C[C@H](O)c4ccc5c(c4C)COC5=O)CC32)n1` (stereo partly drawn) [Example 57, 3-((R)-2-hydroxy-2-(4-methyl-1-oxo-1,3-dihydroisobenzofuran-5-yl)ethyl)-N-(3-methoxy-1,2,4-thiadiazol-5-yl)-3-azabicyclo[3.1.0]hexane-6=carboxamide]: the IC50 stood at 310 nM.

For `N#Cc1cc(NC(=O)C2CCN(CCc3ccc4c(c3)COC4=O)CC2)n(-c2ccc(F)cc2)c1` [Example 21, N-(4-cyano-1-(4-fluorophenyl)-1H-pyrrol-2-yl)-1-(2-(1-oxo-1,3-dihydroisobenzofuran-5-yl)ethyl)piperidine-4-carboxamide], the IC50 is 410 nM.

Consider `Cc1c([C@@H](O)CN2CC3C(C2)C3C(=O)N(C)c2ccns2)ccc2c1COC2=O` (stereo partly drawn) [Example 61, 3-((R)-2-hydroxy-2-(4-methyl-1-oxo-1,3-dihydroisobenzofuran-5-yl)ethyl)-N-(isothiazol-5-yl)-N-methyl-3-azabicyclo[3.1.0]hexane-6-carboxamide], for which the IC50 turned out to be 140 nM.

For `Cc1cc(C#N)ccc1NC(=O)C1CCN(CCc2ccc3c(c2C)COC3=O)CC1` [Example 8, N-(4-cyano-2-methylphenyl)-1-(2-(4-methyl-1-oxo-1,3-dihydroisobenzofuran-5-yl)ethyl)piperidine-4-carboxamide], the IC50 amounted to 100 nM.

For `Cc1c(CCN2CCC(C(=O)Nc3ccc(C#N)c(F)c3)CC2)ccc2c1COC2=O` [Example 5, N-(4-cyano-3-fluorophenyl)-1-(2-(4-methyl-1-oxo-1,3-dihydroisobenzofuran-5-yl)ethyl)piperidine-4-carboxamide], the 50% inhibitory concentration (IC50) stood at 30 nM.

As for `Cc1c([C@@H](O)CN2CC3C(C2)C3C(=O)Nc2cnsc2)ccc2c1COC2=O` (stereo partly drawn) [Example 58, 3-((R)-2-hydroxy-2-(4-methyl-1-oxo-1,3-dihydroisobenzofuran-5-yl)ethyl)-N-(isothiazol-4-yl)-3-azabicyclo[3.1.0]hexane-6-carboxamide], the IC50 was 280 nM.

With `Cc1ccc(C#N)cc1NC(=O)C1CCN(CCc2ccc3c(c2C)COC3=O)CC1` [Example 2, N-(5-cyano-2-methylphenyl)-1-(2-(4-methyl-1-oxo-1,3-dihydroisobenzofuran-5-yl)ethyl)piperidine-4-carboxamide], the IC50 stood at 460 nM.

Take `N#Cc1ccc(NC(=O)C2CCN(CCc3ccc4c(c3)COC4=O)CC2)c(OC(F)(F)F)c1` [Example 15, N-(4-cyano-2-(trifluoromethoxy)phenyl)-1-(2-(1-oxo-1,3-dihydroisobenzofuran-5-yl)ethyl)piperidine-4-carboxamide]: the IC50 turned out to be 180 nM.

For `Cc1nc(NC(=O)C2CCN(CCc3ccc4c(c3C)COC4=O)CC2)ccc1C#N` [Example 7, N-(5-cyano-6-methylpyridin-2-yl)-1-(2-(4-methyl-1-oxo-1,3-dihydroisobenzofuran-5-yl)ethyl)piperidine-4-carboxamide], the IC50 worked out at 100 nM.

As for `CCOc1cc(NC(=O)C2CCN(C[C@H](O)c3ccc4c(c3C)COC4=O)CC2)ccc1C#N` [Example 25, (R)-N-(4-cyano-3-ethoxyphenyl)-1-(2-hydroxy-2-(4-methyl-1-oxo-1,3-dihydroisobenzofuran-5-yl)ethyl)piperidine-4-carboxamide], the IC50 was 180 nM.

As for `CCOc1cc(NC(=O)C2CCN(CCc3ccc4c(c3)COC4=O)CC2)ccc1C#N` [Example 12, N-(4-cyano-3-ethoxyphenyl)-1-[2-(1-oxo-1,3-dihydro-2-benzofuran-5-yl)ethyl]piperidine-4-carboxamide], the IC50 stood at 30 nM.

As to `Cc1cc(NC(=O)C2CCN(C[C@H](O)c3ccc4c(c3C)COC4=O)CC2)sn1` [Example 36, (R)-1-(2-hydroxy-2-(4-methyl-1-oxo-1,3-dihydroisobenzofuran-5-yl)ethyl)-N-(3-methylisothiazol-5-yl)piperidine-4-carboxamide], the IC50 came to 120 nM.

As to `Cl.[2H]C([2H])([2H])N(C(=O)C1CCN(C[C@H](O)c2ccc3c(c2C)COC3=O)CC1)c1ccns1` [Example 42, 1-[(2R)-2-hydroxy-2-(4-methyl-1-oxo-1,3-dihydro-2-benzofuran-5-yl)ethyl]-N-(isothiazol-5-yl)-N-trideuteromethylpiperidine-4-carboxamide], the IC50 was determined as 20 nM.

For `N#Cc1cc(NC(=O)C2CCN(CCc3ccc4c(c3)COC4=O)CC2)ccc1Cl` [Example 16, N-(4-chloro-3-cyanophenyl)-1-(2-(1-oxo-1,3-dihydroisobenzofuran-5-yl)ethyl)piperidine-4-carboxamide], the IC50 turned out to be 260 nM.

Turning to `Cc1nsc(N(C)C(=O)C2C3CN(C[C@H](O)c4ccc5c(c4C)COC5=O)CC32)n1` (stereo partly drawn) [Example 62, 3-((R)-2-hydroxy-2-(4-methyl-1-oxo-1,3-dihydroisobenzofuran-5-yl)ethyl)-N-methyl-N-(3-methyl-1,2,4-thiadiazol-5-yl)-3-azabicyclo[3.1.0]hexane-6-carboxamide], the IC50 was 170 nM.

Turning to `COc1nsc(NC(=O)C2CCN(C[C@H](O)c3ccc4c(c3C)COC4=O)CC2)n1` [Example 1, (R)-1-(2-Hydroxy-2-(4-methyl-1-oxo-1,3-dihydroisobenzofuran-5-yl)ethyl)-N-(3-methoxy-1,2,4-thiadiazol-5-yl)piperidine-4-carboxamide], the IC50 stood at 170 nM.

`Cc1c(CCN2CCC(C(=O)Nc3ccc(C#N)c4ccccc34)CC2)ccc2c1COC2=O` [Example 6, N-(4-cyanonaphthalen-1-yl)-1-(2-(4-methyl-1-oxo-1,3-dihydroisobenzofuran-5-yl)ethyl)piperidine-4-carboxamide]: the IC50 was 70 nM.

Regarding `Cc1c([C@@H](O)CN2CCC(C(=O)Nc3ccc(-c4csnn4)cc3)CC2)ccc2c1COC2=O` [Example 33, (R)-N-(4-(1,2,3-thiadiazol-4-yl)phenyl)-1-(2-hydroxy-2-(4-methyl-1-oxo-1,3-dihydroisobenzofuran-5-yl)ethyl)piperidine-4-carboxamide], the IC50 is 170 nM.

Values taken from US9951052B2, “Inhibitors of the renal outer medullary potassium channel” (Merck Sharp & Dohme Corp., priority 2013, dated 2018).
